# “Also recorded” adds a separate entry of the source.
# Columns and labels:
# [1] = system: DRG neurons from TRPA1-null mice; experiment: Ca2+ imaging in DRG neurons from TRPA1-null mice; format: cell-based, mouse; details: capsaicin 100 nM
# Method: Ca^2+ Imaging. Neurons were loaded with 1 μM Fluo4-AM (Molecular Probes) for 20 min and washed for a further 10-20 min before recording. The dye was excited at 488±15 nm. Emitted fluorescence was filtered with a 535±25 nm bandpass filter, captured by a SPOT RT digital camera (Diagnostic Instruments) and read into a computer. Analysis was performed offline by using Simple PCI software (Compix Inc.).
# [2] = system: mice; experiment: Flexor reflex response (EMG of semitendinosus muscle) after femoral artery injection; format: in vivo, mouse; details: propofol 500 μM, capsaicin 50 μM
# Method: (§1) Behavioral Experiments and Neurogenic Inflammation. Animal experiments were performed according to National Institutes of Health and institutional guidelines. […] Nocifensive behavior (nose wiping in sawdust bedding) was recorded for 2 min with a video camera and the duration was subsequently measured by a blinded observer. […] Electromyographic (EMG) activity was recorded via platinum electrodes from the semitendinosus muscle in mice anesthetized with urethane (1.3 g/kg) as described in Ando and Watanabe, Br J. Anaesth. […] The EMG signal was recorded by using a low-pass cutoff frequency of 200 Hz and integrated offline by using a 100-ms time window. […] Ear thickness was recorded by using an engineer's micrometer (Mitutoyo Corp.) before mustard-oil application and thereafter every 15 min for 60 min of anesthesia and 60 min of recovery.
# [3] = system: mice; experiment: Nocifensive behavior after topical application to the nasal epithelium; format: in vivo, mouse; details: capsaicin 10 mM
# Method: as §1
# [4] = target: T1, TRPV1 (Mus musculus, UniProt Q704Y3); experiment: Patch-clamp of capsaicin-sensitive sensory neurons (nodose ganglia); format: cell-based
# T1 construct: endogenous in cells; host or cells: primary nodose ganglion neurons of adult C57Bl6/J mice
# T1 sequence (Q704Y3 whole entry): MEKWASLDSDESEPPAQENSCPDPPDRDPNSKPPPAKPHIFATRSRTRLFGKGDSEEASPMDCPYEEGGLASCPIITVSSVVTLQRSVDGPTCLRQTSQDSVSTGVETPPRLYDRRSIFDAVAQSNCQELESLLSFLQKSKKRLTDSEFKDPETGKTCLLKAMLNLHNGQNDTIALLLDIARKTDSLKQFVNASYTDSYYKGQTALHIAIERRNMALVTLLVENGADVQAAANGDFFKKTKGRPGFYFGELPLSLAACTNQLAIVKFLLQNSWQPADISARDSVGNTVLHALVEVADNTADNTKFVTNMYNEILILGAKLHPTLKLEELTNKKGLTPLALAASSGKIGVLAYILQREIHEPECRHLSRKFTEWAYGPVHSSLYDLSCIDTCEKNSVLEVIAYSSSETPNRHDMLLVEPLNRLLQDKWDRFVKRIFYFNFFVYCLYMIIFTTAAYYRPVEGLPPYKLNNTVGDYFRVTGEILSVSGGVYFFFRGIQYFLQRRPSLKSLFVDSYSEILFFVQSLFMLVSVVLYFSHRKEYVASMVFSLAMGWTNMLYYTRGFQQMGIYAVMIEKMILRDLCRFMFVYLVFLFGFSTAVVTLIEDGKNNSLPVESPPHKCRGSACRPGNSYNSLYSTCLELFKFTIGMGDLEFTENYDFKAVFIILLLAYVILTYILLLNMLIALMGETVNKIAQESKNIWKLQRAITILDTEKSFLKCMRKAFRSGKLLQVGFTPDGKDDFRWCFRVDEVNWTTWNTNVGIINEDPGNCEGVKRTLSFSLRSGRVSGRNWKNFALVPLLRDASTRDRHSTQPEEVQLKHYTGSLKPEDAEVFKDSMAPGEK
# Method: (§2) HEK cell and sensory neuron electrophysiology. HEK 293F cells (Invitrogen) were cultured in DMEM supplemented with 1% non-essential amino acids and 10% fetal calf serum. Cell cultures were maintained at 37° C. with 5% CO2. Cells were transfected with rat TRPV 1 (gift of David Julius), and GFP cDNA using Lipofectamine™ Transfection Reagent (Invitrogen) and used 24-48 h after transfection. Nodose ganglia were obtained from adult mice (C57B16/J and TRPV1-null), cut, digested with collagenase, and cultured in Neurobasal +2% B-27 medium (Invitrogen), 0.1% L-glutamine and 1% penicillin/streptomycin on poly-D lysine-coated glass coverslips at 37° C. in 5% CO2. Neurons were used within 24-36 hr of culture. Whole-cell and single-channel patch clamp recordings were performed using an EPC8 amplifier (HEKA). The current signal was low-pass filtered at 1-3 kHz and sampled at 4 kHz. Currents were further filtered for display purposes. For whole-cell and excised patch recordings the bath solution contained (in mM): 140 NaCl, 4 KCl, 1 MgCl2, 1 EGTA, 10 HEPES, 10 glucose pH 7.3 (290 mOsm). The pipette solution contained (in mM): 140 CsC1, 10 NaCl, 10 HEPES, 5 EGTA, 2 Mg ATP and 0.03 GTP, pH 7.3. The peak amplitudes measured either during the prepulse or the tail current (within 1 ms) were plotted as a function of the test potential and normalized to the maximal current obtained from the following Boltzmann function: […]
# [5] = target: T2, TRPV1 (Rattus norvegicus, UniProt O35433); experiment: Whole-cell patch-clamp of TRPV1-expressing HEK293 cells; format: cell-based; set-up: expressed in transfected cells; host or cells: HEK 293F (Invitrogen), co-transfected with GFP cDNA; details: for Shifts in TRPV1 V1/2 and increases in maximal conductance by alcohols: decanol 0.6 mM, dodecanol 0.1 mM
# T2 sequence (O35433 whole entry): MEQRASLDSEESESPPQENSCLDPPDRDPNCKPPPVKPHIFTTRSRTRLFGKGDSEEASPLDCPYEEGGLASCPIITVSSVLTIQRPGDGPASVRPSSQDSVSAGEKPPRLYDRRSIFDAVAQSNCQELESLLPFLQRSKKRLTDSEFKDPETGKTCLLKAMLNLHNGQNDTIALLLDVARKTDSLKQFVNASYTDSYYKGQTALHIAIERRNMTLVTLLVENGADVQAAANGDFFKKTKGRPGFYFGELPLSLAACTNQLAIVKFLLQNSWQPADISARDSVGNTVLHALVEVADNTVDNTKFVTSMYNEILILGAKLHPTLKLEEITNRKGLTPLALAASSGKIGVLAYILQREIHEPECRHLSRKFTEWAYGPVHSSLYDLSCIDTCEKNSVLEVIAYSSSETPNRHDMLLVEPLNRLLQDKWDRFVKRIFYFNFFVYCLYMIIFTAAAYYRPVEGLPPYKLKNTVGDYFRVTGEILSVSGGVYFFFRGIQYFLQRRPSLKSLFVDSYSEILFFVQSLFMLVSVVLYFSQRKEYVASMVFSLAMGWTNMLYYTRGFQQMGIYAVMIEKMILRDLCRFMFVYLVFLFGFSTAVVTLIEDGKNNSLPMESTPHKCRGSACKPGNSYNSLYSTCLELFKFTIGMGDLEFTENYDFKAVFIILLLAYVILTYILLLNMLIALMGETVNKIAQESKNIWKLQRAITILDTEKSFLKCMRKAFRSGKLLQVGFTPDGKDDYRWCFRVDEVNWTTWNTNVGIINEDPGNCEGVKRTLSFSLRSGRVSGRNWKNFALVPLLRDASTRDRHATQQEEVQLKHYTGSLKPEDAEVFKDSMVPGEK
# Method: (§3) Electrophysiology. […] Whole-cell and single-channel patch-clamp recordings were performed by using an EPC8 amplifier (HEKA Electronics). For whole-cell and excised patch recordings the bath solution contained 140 mMNaCl, 4 mMKCl, 1 mMMgCl2, 1.2 mMCaCl2, 10 mMHepes, 10 mM glucose, pH 7.3. For cell-attached experiments, NaCl was replaced with KCl in the bath solution. […] For neuronal recording NaCl was replaced with K-gluconate (plus 1 mMATP, 0.2 mM GTP). Solutions were applied via a gravity-fed system. […] Voltage-dependent properties were measured as described in Matt and Ahern, J. Physiol. […] The baseline currents under control conditions were subtracted. For cell-attached experiments, peak amplitudes were measured from all-points histograms, and open probability was measured as NPo>750 ms. Defolliculated Xenopus laevis oocytes were injected with ≈10 ng of hTRPA1 (gift of Ardem Patapoutian, The Scripps Research Institute, La Jolla, Calif.).
# as §2, with “HEK 293F cells (Invitrogen) were cultured in DMEM supplemented with 1% non-essential amino acids and 10% fetal calf serum.” left out
# [6] = target: T3, TRPA1 (Rattus norvegicus, UniProt Q6RI86); experiment: Whole-cell patch-clamp of TRPA1-expressing HEK293 cells; format: cell-based; details: for Activation of TRPA1 currents by VGAs: 0.9 mM, voltage-clamped HEK293 cells
# T3 construct: expressed in transfected cells; host or cells: HEK 293F
# T3 sequence (Q6RI86 whole entry): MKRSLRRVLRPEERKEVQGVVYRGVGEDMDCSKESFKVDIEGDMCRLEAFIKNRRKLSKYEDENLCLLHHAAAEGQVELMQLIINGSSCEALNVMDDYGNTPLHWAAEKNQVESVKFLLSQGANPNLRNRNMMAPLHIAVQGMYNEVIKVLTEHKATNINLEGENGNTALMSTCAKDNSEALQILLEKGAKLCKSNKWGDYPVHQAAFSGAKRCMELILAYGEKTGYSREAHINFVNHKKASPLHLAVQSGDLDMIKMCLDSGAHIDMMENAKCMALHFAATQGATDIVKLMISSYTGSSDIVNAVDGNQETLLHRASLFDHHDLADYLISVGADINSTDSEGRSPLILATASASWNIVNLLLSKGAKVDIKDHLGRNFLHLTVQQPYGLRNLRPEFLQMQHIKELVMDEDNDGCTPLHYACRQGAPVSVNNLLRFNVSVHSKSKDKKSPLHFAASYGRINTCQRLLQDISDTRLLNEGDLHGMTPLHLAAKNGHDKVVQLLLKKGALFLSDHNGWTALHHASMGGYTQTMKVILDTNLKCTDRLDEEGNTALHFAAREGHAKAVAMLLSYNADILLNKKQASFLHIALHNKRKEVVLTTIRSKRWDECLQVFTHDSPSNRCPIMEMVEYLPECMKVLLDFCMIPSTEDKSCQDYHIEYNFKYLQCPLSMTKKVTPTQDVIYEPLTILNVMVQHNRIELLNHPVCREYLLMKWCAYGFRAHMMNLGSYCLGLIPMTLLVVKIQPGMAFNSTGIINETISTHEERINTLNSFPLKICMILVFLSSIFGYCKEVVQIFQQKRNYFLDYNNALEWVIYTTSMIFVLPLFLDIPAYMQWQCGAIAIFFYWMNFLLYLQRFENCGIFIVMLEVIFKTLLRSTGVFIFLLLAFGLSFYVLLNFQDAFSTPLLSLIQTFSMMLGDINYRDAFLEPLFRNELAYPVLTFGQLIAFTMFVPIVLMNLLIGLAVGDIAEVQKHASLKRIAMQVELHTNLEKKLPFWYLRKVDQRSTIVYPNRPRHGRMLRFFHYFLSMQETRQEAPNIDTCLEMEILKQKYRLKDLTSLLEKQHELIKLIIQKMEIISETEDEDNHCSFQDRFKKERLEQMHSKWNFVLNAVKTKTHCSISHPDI
# Method: as §3
# Volatile General Anesthetics and Chemicals. Saturated stock solutions of volatile GAs were prepared in gas-tight bottles by dissolving excess anesthetic agents in bath solutions overnight. From these stock solutions fresh dilutions were made up every 40-60 min. Concentrations of GAs in the bath solutions were verified by using a modified head-space gas chromatography method. […] Alcohols with <6 carbons were dissolved directly into extracellular solution, and alcohols containing 6 carbons or more were dissolved in DMSO and then diluted into extracellular solutions that were sonicated for 20 min. All other drugs were prepared as stock solutions in DMSO or ethanol and diluted into physiological solution before experiments.
# [7] = target: T4, TRPM8 (Rattus norvegicus, UniProt Q8R455); experiment: Whole-cell patch-clamp of TRPM8-expressing HEK293 cells; format: cell-based
# T4 construct: expressed in transfected cells; host or cells: HEK 293F
# T4 sequence (Q8R455 whole entry): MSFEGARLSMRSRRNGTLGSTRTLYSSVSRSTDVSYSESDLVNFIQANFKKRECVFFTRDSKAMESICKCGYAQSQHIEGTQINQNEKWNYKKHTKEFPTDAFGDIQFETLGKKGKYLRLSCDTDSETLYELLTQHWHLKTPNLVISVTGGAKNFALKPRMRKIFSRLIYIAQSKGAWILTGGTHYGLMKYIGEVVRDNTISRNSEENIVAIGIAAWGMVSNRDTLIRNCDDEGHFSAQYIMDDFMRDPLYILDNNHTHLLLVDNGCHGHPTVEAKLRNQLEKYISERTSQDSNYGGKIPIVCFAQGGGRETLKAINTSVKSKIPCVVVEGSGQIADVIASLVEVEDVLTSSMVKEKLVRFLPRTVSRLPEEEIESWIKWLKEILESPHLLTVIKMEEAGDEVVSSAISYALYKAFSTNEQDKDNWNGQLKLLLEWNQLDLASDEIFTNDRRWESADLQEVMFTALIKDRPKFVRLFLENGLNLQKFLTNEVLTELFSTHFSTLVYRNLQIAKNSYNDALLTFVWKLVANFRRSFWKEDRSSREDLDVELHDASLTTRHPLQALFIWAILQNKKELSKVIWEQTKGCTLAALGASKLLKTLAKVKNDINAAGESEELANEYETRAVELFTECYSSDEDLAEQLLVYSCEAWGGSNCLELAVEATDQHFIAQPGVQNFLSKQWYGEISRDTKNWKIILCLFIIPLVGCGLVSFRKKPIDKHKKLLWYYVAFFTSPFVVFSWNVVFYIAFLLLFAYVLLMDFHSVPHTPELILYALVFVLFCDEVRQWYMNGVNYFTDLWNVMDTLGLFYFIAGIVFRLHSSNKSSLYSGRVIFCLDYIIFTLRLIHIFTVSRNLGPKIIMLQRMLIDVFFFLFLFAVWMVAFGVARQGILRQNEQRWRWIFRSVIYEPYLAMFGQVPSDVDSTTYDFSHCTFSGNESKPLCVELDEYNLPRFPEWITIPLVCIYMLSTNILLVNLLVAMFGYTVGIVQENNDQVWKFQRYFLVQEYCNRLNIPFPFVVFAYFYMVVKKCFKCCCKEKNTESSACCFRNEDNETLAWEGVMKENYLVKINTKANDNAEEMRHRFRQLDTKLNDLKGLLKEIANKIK
# Method: as §3
# [8] = target: T5, hTRPA1 (Homo sapiens, UniProt O75762); experiment: AITC-evoked currents in TRPA1-expressing Xenopus oocytes; format: cell-based; details: VGAs 0.5-0.65 mM, AITC 10 μM
# T5 construct: expressed in transfected cells; host or cells: Xenopus laevis oocytes (injected)
# T5 sequence (O75762 whole entry): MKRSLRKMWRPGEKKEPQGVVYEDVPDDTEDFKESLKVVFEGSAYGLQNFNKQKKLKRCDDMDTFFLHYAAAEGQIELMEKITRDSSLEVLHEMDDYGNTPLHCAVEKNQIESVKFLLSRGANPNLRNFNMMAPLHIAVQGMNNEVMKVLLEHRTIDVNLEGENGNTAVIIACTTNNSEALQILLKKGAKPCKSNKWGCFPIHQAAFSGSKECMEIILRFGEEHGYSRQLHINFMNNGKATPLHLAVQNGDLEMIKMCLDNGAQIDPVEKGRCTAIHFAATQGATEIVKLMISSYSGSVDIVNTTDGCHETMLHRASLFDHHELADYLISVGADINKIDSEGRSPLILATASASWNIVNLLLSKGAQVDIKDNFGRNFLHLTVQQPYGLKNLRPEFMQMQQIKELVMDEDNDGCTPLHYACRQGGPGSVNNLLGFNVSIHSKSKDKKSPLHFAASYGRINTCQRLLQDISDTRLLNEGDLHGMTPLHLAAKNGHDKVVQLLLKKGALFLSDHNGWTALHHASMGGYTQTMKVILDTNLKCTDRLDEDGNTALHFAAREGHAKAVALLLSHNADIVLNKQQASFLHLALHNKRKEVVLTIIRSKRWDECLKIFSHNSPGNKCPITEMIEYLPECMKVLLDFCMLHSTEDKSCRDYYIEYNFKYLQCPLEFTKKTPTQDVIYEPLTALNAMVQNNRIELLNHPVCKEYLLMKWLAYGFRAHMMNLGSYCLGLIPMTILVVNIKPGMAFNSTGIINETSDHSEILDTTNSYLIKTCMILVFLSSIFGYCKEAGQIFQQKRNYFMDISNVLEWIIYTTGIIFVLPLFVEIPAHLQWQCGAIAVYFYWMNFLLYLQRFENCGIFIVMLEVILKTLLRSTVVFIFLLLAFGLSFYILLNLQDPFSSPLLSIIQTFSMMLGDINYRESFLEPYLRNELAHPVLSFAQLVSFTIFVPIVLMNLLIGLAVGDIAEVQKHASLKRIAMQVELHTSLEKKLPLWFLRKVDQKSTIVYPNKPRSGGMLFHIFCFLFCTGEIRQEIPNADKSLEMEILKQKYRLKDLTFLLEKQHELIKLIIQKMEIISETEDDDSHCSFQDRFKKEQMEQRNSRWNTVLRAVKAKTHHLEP
# Method: (§4) Electrophysiology. HEK 293F cells were transfected with rat TRPV1, TRPA1, and TRPM8 (gift of David Julius, University of California, San Francisco). Dorsal root ganglia were cultured from adult mice (C57B16/J wild type and TRPV1-null, and mixed B6/129 background TRPA1-null) in Neurobasal +2% B-27 medium (Invitrogen), 0.1% L-glutamine and 1% penicillin/streptomycin. Whole-cell and single-channel patch-clamp recordings were performed by using an EPC8 amplifier (HEKA Electronics). For whole-cell and excised patch recordings the bath solution contained 140 mMNaCl, 4 mMKCl, 1 mMMgCl2, 1.2 mMCaCl2, 10 mMHepes, 10 mM glucose, pH 7.3. For cell-attached experiments, NaCl was replaced with KCl in the bath solution. The pipette solution contained 140 mM NaCl or KCl, 10 mM Hepes, 5 mM EGTA, pH 7.3. For neuronal recording NaCl was replaced with K-gluconate (plus 1 mMATP, 0.2 mM GTP). Solutions were applied via a gravity-fed system. Separate outlets were used to apply capsaicin and AITC solutions to avoid contamination. Voltage-dependent properties were measured as described in Matt and Ahern, J. Physiol. 585:469-482 (2007). Current-voltage measurements comprised a 200-ms ramp from −150 mV to +200 mV. The baseline currents under control conditions were subtracted. For cell-attached experiments, peak amplitudes were measured from all-points histograms, and open probability was measured as NPo>750 ms. Defolliculated Xenopus laevis oocytes were injected with ≈10 ng of hTRPA1 (gift of Ardem Patapoutian, The Scripps Research Institute, La Jolla, Calif.). Oocytes were placed in a Perspex chamber and continuously superfused (5 ml min^−1) with Ca^2+-free solution containing 100 mM NaCl, 2.5 mM KCl, 5 mM Hepes, 1 mM MgC12 and titrated to pH 7.3 with ˜5 mM NaOH.
# [9] = target: T2, TRPV1; experiment: Voltage-clamp of TRPV1-expressing Xenopus oocytes (capsaicin, protons, heat); format: cell-based; details: VGAs 0.6 mM, pH 5.5
# Method: Oocyte electrophysiology. […] Oocytes were placed in a Perspex chamber and continuously superfused (5 ml min-1) with Ca2+-free solution containing (in mM): 100 NaCl, 2.5 KCl, 5 HEPES, 1 MgCl2 and titrated to pH 7.3 with ˜5 mM NaOH. For solutions <pH 6.0, HEPES was replaced with either 5 mM MES or 5 mM sodium citrate. Oocytes were routinely voltage-clamped at −60 mV at 22-23° C. For heat activation, bath temperature was raised from ˜22-50° C. over ˜100 s using an in-line solution heater (Warner Instruments). The temperature was continuously monitored with a probe placed within 2 mm of the oocyte. The temperature-activation threshold was defined as a 20% increase in current above baseline.
# Volatile general anesthetics. Saturated stock solutions of volatile general anesthetics (VGAs) were prepared in gas-tight bottles by dissolving excess anesthetic agents in bath solutions and stirring vigorously overnight. From these stock solutions fresh dilutions were made up every 40-60 minutes. Concentrations of volatile anesthetics in the bath solutions were verified using a modified head-space gas chromatography method. The gas chromatograph (Carlo Erba, Milan, Italy) was equipped with a flame ionization detector (FID) and mass spectrometer. The carrier gas was hydrogen (60 kPa column head pressure) and the fused silica capillary column, coated with polysiloxane SE-30, was 25 m×0.25 mm. Injector temperature was 250° C., FID temperature was 300° C. and the oven was maintained at 90° C. Standards were prepared from a mixture of halothane, isoflurane, and sevoflurane dissolved in acetonitrile with enflurane as an internal standard.
# [10] = rat at 37° C.; cited from earlier work
# [11] = system: AITC-sensitive DRG neurons; experiment: Voltage- and current-clamp of DRG sensory neurons; format: cell-based, mouse; details: camphor 0.5 mM, propofol 100 μM
# Method: as §4
# [12] = isoflurane 0.9 mM, octanol 1 mM
smiles,measurement,setting,value
COc1cc(CNC(=O)CCCC/C=C/C(C)C)ccc1O [capsaicin],TRPA1-deficient cells sensitive to capsaicin,[1],43%
same,Flexor reflex muscle activity in TRPA1+/− mice,[2],robust responses
same,Flexor reflex muscle activity in TRPA1-null mice,[2],robust responses
same,Nocifensive behavior in TRPV1-null mice,[3],but not in TRPV 1-null mice
same,Nocifensive behavior in wild-type mice,[3],produced similar behavior
Oc1cc2c(cc1O)CN(C(=S)NCCc1ccc(Cl)cc1)CCC2 [capsazepine],Inhibition of responses to isoflurane after BK,"[4]; capsazepine 1 μM, 3 of 3 cells",completely inhibited
CCCCCCCCCCO [decanol],Shifts in TRPV1 V1/2 and increases in maximal conductance by alcohols,[5]; octanol 1 mM,smaller response
CCCCCCCCO [octanol],Effects at TRPV1 at holding potential −50 mV,[5]; [12],negligible effects
same,Shifts in TRPV1 V1/2 and increases in maximal conductance by alcohols,[5]; octanol 1 mM,reached a maximum
same,Response relative to 10 μM capsaicin,"[5]; octanol 1.8 mM, at 200 mV",~40%
same,Activation of TRPA1 at holding potential −50 mV,[6]; [12],selectively activated
same,Response relative to 1 mM AITC,"[6]; octanol 1.8 mM, at +200 mV",< 50%
same,Effects at TRPM8 at holding potential −50 mV,[7]; [12],negligible effects
CCCCCCCCCCCCO [dodecanol],Shifts in TRPV1 V1/2 and increases in maximal conductance by alcohols,[5]; octanol 1 mM,without effect
COC(F)(F)C(Cl)Cl [methoxyflurane],Effect on AITC-evoked currents,[8],did not
FC(F)OC(F)(F)C(F)Cl (centres unmarked) [enflurane],Enhancement of proton-evoked currents compared with isoflurane and sevoflurane,[9],significantly more
same,1 MAC equivalent aqueous concentration (published conversion factor),[10],0.64 mM
CC12CCC(CC1=O)C2(C)C (centres unmarked) [camphor],Inhibition of propofol-evoked inward currents,[11],blocked; also recorded: sensitive
FC(F)(F)C(Cl)Br (centres unmarked) [halothane],Currents evoked after PDBu treatment in TRPV1-expressing HEK293 cells,"[5]; VGA 0.9 mM, PDBu 500 nM, room temperature (25° C.)",activates currents
same,Activation of TRPA1 currents by VGAs,[6],without effect
same,1 MAC equivalent aqueous concentration (published conversion factor),[10],0.27 mM
CCOC(=O)c1cncn1[C@H](C)c1ccccc1 [etomidate],"Change in V1/2 of TRPM8 (ΔV1/2, increase)","[7]; 100 μM, n=5-6",25.5 mV
CC(C)(C)c1ccc(/C=C/C(=O)Nc2ccc3c(c2)OCCO3)cc1 [AMG9810],Inhibition of isoflurane-evoked TRPV1 responses after PDBu,[4],inhibits; also recorded: completely inhibited
FCOC(C(F)(F)F)C(F)(F)F [sevoflurane],Activation of TRPA1 currents by VGAs,[6],without effect
same,1 MAC equivalent aqueous concentration (published conversion factor),[10],0.35 mM
same,Effect on AITC-evoked currents,[8],did not

# Source: patent US20110104301A1, “METHODS OF REDUCING PAIN AND INFLAMMATION” (Georgetown University, A Congressionally Chartered …, priority 2008, published 2011)
